# Data published in ChEMBL document CHEMBL1921693, “Efficient synthesis and in vitro antitubercular activity of 1,2,3-triazoles as inhibitors of Mycobacterium tuberculosis” (2011).
# System: Mycobacterium tuberculosis
# Assay: Antituberculosis activity against Mycobacterium tuberculosis H37Rv by agar dilution method
# Assay type: functional
row,Structure (SMILES),MIC [µg/mL]
1,CCOC(=O)c1nnn(Cc2ccccc2)c1C(=O)OCC,12.5
2,CCOC(=O)c1nnn(CC(=O)c2ccccc2)c1C(=O)OCC,3.13
3,CCOC(=O)c1nnn(CC(=O)c2ccc(OC)cc2)c1C(=O)OCC,6.25
4,CCOC(=O)c1nnn(CC(=O)c2ccc(Br)cc2)c1C(=O)OCC,1.56
5,CCOC(=O)c1nnn(CC(=O)c2ccc(Cl)cc2)c1C(=O)OCC,3.13
6,CCOC(=O)c1nnn(CC(=O)OC)c1C(=O)OCC,> 25
7,CCOC(=O)Cn1nnc(C(=O)OCC)c1C(=O)OCC,> 25
8,COC(=O)c1nnn(Cc2ccccc2)c1C(=O)OC,25
9,COC(=O)c1nnn(CC(=O)c2ccccc2)c1C(=O)OC,12.5
10,COC(=O)c1nnn(CC(=O)c2ccc(OC)cc2)c1C(=O)OC,12.5
11,COC(=O)c1nnn(CC(=O)c2ccc(Br)cc2)c1C(=O)OC,3.13
12,COC(=O)c1nnn(CC(=O)c2ccc(Cl)cc2)c1C(=O)OC,6.25
13,COC(=O)Cn1nnc(C(=O)OC)c1C(=O)OC,> 25
14,CCOC(=O)Cn1nnc(C(=O)OC)c1C(=O)OC,> 25
15,CC[C@@H](CO)NCCN[C@@H](CC)CO [ETHAMBUTOL],3.25
16,NNC(=O)c1ccncc1 [ISONIAZID],0.75

# System: Mycobacterium tuberculosis
# Assay: Ratio of ethambutol MIC to compound MIC for Mycobacterium tuberculosis H37Rv
# Assay type: functional
row,Structure (SMILES),Ratio
1,CCOC(=O)c1nnn(CC(=O)c2ccc(Br)cc2)c1C(=O)OCC,2.08
